Test results reported in patent publication US5593970A, “Heterocyclic anthracycline analogs” (priority 1994, dated 1997).
Where a name gives a salt, the structure may show the parent alone. Values belong to the compound of their own block, whether it stands above or below them.

Key:
[1] = tested on: LS180; test: Soft agar colony formation disk diffusion assay; type: cell-based, human
Summary of the method: (§1)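 Anti-clonogenic effect assessed by disk diffusion in two-layer Noble agar, cells plated separately per line at an optimised density. After 10–20 days incubation, the inhibition zone around the compound disk was measured microscopically.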

[2] = tested on: MCF7/ADR; test: Soft agar colony formation disk diffusion assay; type: cell-based, human
Summary of the method: as §1

[3] = tested on: MCF7; test: Soft agar colony formation disk diffusion assay; type: cell-based, human
Summary of the method: as §1

[4] = tested on: B16; test: Soft agar colony formation disk diffusion assay; type: cell-based, murine
Summary of the method: (§2)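 Anti-clonogenic activity is scored as the distance from the drug-loaded disk edge to the closest colony of more than 50 cells. Solid tumour and leukaemia lines are plated in separate dishes in two-layer soft agar and incubated 10-20 days at 37° C.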

[5] = tested on: LL; test: Soft agar colony formation disk diffusion assay; type: cell-based, murine
Summary of the method: as §2

[6] = tested on: M5076; test: Soft agar colony formation disk diffusion assay; type: cell-based, murine
Summary of the method: as §2

[7] = tested on: P388/ADR; test: Soft agar colony formation disk diffusion assay; type: cell-based, murine
Summary of the method: as §2

[8] = tested on: P388; test: Soft agar colony formation disk diffusion assay; type: cell-based, murine
Summary of the method: as §2

[9] = tested on: SKOV3; test: Microculture tetrazolium assay; type: cell-based; conditions: Homo sapiens, SK-OV-3, SKOV3; read-out: IC50
[10] = tested on: LOX; test: Microculture tetrazolium assay; type: cell-based; conditions: read-out: IC50
[11] = tested on: HT29; test: Microculture tetrazolium assay; type: cell-based; conditions: Homo sapiens, HT-29, HT29; read-out: IC50

Compound: CCOC(=O)[C@@H]1CC2=C(C(=O)c3cc4ccccc4c(OC(C)=O)c3C2=O)[C@@H](O)O1 (mixture of isomers) [BCH-660, (1S,3S) and (1R,3R)-Ethyl-[6-acetoxy-1-hydroxy-5,12-dioxo-3,4,5,12-tetrahydroanthraceno (2,3-c)pyran-3-yl]formate]
zone of inhibition ([1]; 10 μg/DISK): 15.0 ± 4.2 Zone Units
zone of inhibition ([1]; 100 μg/DISK): 76.0 ± 4.2 Zone Units
zone of inhibition ([2]; 10 μg/DISK): 9.1 ± 4.3 Zone Units
zone of inhibition ([2]; 100 μg/DISK): 109.8 ± 10.0 Zone Units
zone of inhibition ([3]; 10 μg/DISK): 27.4 ± 4.3 Zone Units
zone of inhibition ([3]; 100 μg/DISK): 82.3 ± 12.9 Zone Units
zone of inhibition ([4]; 10 μg/DISK): 6.1 ± 8.6 Zone Units
zone of inhibition ([4]; 100 μg/DISK): 85.4 ± 8.6 Zone Units
zone of inhibition ([5]; 100 μg/DISK): 55.0 ± 8.4 Zone Units
zone of inhibition ([6]; 10 μg/DISK): 24.4 ± 8.6 Zone Units
zone of inhibition ([6]; 100 μg/DISK): 61.0 ± 0.0 Zone Units
zone of inhibition ([7]; 10 μg/DISK): 6.1 ± 8.6 Zone Units
zone of inhibition ([7]; 100 μg/DISK): 54.9 ± 8.6 Zone Units
zone of inhibition ([8]; 10 μg/DISK): 18.3 ± 8.6 Zone Units
zone of inhibition ([8]; 100 μg/DISK): 54.9 ± 0.0 Zone Units
IC50 [9]: 5.34 µM
IC50 [10]: 9.84 µM
IC50 [11]: 2.92 µM

Compound: COC(=O)[C@H]1CC2=C(C(=O)c3c(c(OC)c4ccccc4c3O)C2=O)[C@H](O[C@H]2C[C@H](NC(=O)C(F)(F)F)[C@H](O)[C@H](C)O2)O1 (mixture of isomers) [BCH-675, (1'S,1S,3R) and 1'S,1R,3S) Methyl(11-hydroxy-6-methoxy-1-[2',3',6'-trideoxy-3-trifluoroacetamido-4'-hydroxy-L-lyxohexopyranose]-5,12-dioxo-3,4,5,12-tetrahydroanthra-ceno[2,3-c]pyran-3-yl) formate]
zone of inhibition ([1]; 10 μg/DISK): 0 Zone Units
zone of inhibition ([1]; 100 μg/DISK): 148.4 ± 31.3 Zone Units
zone of inhibition ([2]; 10 μg/DISK): 0 Zone Units
zone of inhibition ([2]; 100 μg/DISK): 26.3 ± 14.0 Zone Units
zone of inhibition ([3]; 10 μg/DISK): 0 Zone Units
zone of inhibition ([3]; 100 μg/DISK): 30.5 ± 10.5 Zone Units
zone of inhibition ([4]; 10 μg/DISK): 0 Zone Units
zone of inhibition ([4]; 100 μg/DISK): 0 Zone Units
zone of inhibition ([5]; 10 μg/DISK): 75.2 ± 40.5 Zone Units
zone of inhibition ([5]; 100 μg/DISK): 264.0 ± 38.0 Zone Units
zone of inhibition ([6]; 10 μg/DISK): 0 Zone Units
zone of inhibition ([6]; 100 μg/DISK): 142.0 ± 35.2 Zone Units
zone of inhibition ([7]; 10 μg/DISK): 10.1 ± 9.3 Zone Units
zone of inhibition ([7]; 100 μg/DISK): 146.3 ± 32.3 Zone Units
zone of inhibition ([8]; 10 μg/DISK): 0 Zone Units
zone of inhibition ([8]; 100 μg/DISK): 152.5 ± 30.5 Zone Units
IC50 [9]: 9.16 µM
IC50 [10]: 4.29 µM
IC50 [11]: 5.26 µM

IC50 [9]: 2.84 µM
IC50 [10]: 3.89 µM
IC50 [11]: 2.18 µM
Compound: COC(=O)[C@H]1CC2=C(C(=O)c3c(cc4ccccc4c3O)C2=O)[C@H](O[C@H]2C[C@H](NC(=O)C(F)(F)F)[C@H](O)[C@H](C)O2)O1 (mixture of isomers) [BCH-692, (1'S,1S,3R) and (1'S,1R,3S) Methyl[11-hydroxy-1-(2',3',6'-trideoxy-3'-trifluoroacetamido-4'-hydroxy-L-lyxohexopyranose)-5,12-dioxo-3,4,5,12-tetrahydro-anthraceno[2,3-c]pyran-3-yl]formate]
zone of inhibition ([1]; 10 μg/DISK): 130.0 ± 12.5 Zone Units
zone of inhibition ([1]; 100 μg/DISK): 250.0 ± 8.4 Zone Units
cross resistance with adriamycin, MCF7/ADR vs MCF7 [2]: lack of cross resistance with adriamycin
zone of inhibition ([2]; 10 μg/DISK): 122.0 ± 10.0 Zone Units
zone of inhibition ([2]; 100 μg/DISK): 237.9 ± 8.6 Zone Units
zone of inhibition ([3]; 10 μg/DISK): 131.0 ± 12.7 Zone Units
zone of inhibition ([3]; 100 μg/DISK): 289.5 ± 22.0 Zone Units
zone of inhibition ([4]; 10 μg/DISK): 0 Zone Units
zone of inhibition ([4]; 100 μg/DISK): 200.0 ± 55.0 Zone Units
zone of inhibition ([5]; 10 μg/DISK): 80.5 ± 20.5 Zone Units
zone of inhibition ([5]; 100 μg/DISK): 140.3 ± 40.5 Zone Units
zone of inhibition ([6]; 10 μg/DISK): 50.0 ± 25.5 Zone Units
zone of inhibition ([6]; 100 μg/DISK): 200.0 ± 100.0 Zone Units
zone of inhibition ([7]; 10 μg/DISK): 25.0 ± 10.0 Zone Units
zone of inhibition ([7]; 100 μg/DISK): 150.5 ± 50.0 Zone Units
zone of inhibition ([8]; 10 μg/DISK): 50.5 ± 10.9 Zone Units
zone of inhibition ([8]; 100 μg/DISK): 180.0 ± 50.6 Zone Units

Compound: CCOC(=O)C1CC2=C(CO1)C(=O)c1c(cc3ccccc3c1O)C2=O (stereo not drawn) [BCH-651, Ethyl(6 and 11 hydroxy-5,12-dioxo-3,4,5,12-tetrahydro-anthraceno[2,3-c]pyran-3-yl)]formate]
zone of inhibition ([1]; 10 μg/DISK): 0 Zone Units
zone of inhibition ([1]; 100 μg/DISK): 76.2 ± 21.5 Zone Units
zone of inhibition ([2]; 10 μg/DISK): 10.0 ± 5.0 Zone Units
zone of inhibition ([2]; 100 μg/DISK): 131.1 ± 30.1 Zone Units
zone of inhibition ([3]; 100 μg/DISK): 115.9 ± 8.6 Zone Units
zone of inhibition ([4]; 10 μg/DISK): 0 Zone Units
zone of inhibition ([4]; 100 μg/DISK): 27.5 ± 13.4 Zone Units
zone of inhibition ([5]; 100 μg/DISK): 27.4 ± 4.3 Zone Units
zone of inhibition ([6]; 10 μg/DISK): 15.2 ± 4.3 Zone Units
zone of inhibition ([6]; 100 μg/DISK): 51.3 ± 43.3 Zone Units
zone of inhibition ([7]; 10 μg/DISK): 10.0 ± 0.0 Zone Units
zone of inhibition ([7]; 100 μg/DISK): 30.5 ± 8.6 Zone Units
zone of inhibition ([8]; 10 μg/DISK): 45.7 ± 12.9 Zone Units
zone of inhibition ([8]; 100 μg/DISK): 294.5 ± 101.1 Zone Units
IC50 [9]: 20.8 µM
IC50 [10]: 22.1 µM
IC50 [11]: 17 µM

Compound: CCOC(=O)C1CC2=C(CO1)C(=O)c1c(c(O)c3ccccc3c1OC(C)=O)C2=O (stereo not drawn) [BCH-654, Ethyl[11-acetoxy-6-hydroxy-5,12-dioxo-3,4,5,12-tetrahydroanthraceno(2,3-c)pyran-3-yl]formate]
zone of inhibition ([1]; 10 μg/DISK): 24.4 ± 8.6 Zone Units
zone of inhibition ([1]; 100 μg/DISK): 158.5 ± 9.1 Zone Units
zone of inhibition ([2]; 10 μg/DISK): 0 Zone Units
zone of inhibition ([2]; 100 μg/DISK): 155.6 ± 12.7 Zone Units
zone of inhibition ([3]; 10 μg/DISK): 0 Zone Units
zone of inhibition ([3]; 100 μg/DISK): 115.9 ± 8.6 Zone Units
zone of inhibition ([4]; 10 μg/DISK): 0 Zone Units
zone of inhibition ([4]; 100 μg/DISK): 137.4 ± 21.8 Zone Units
zone of inhibition ([5]; 100 μg/DISK): 0 Zone Units
zone of inhibition ([6]; 10 μg/DISK): 0 Zone Units
zone of inhibition ([6]; 100 μg/DISK): 0 Zone Units
zone of inhibition ([7]; 10 μg/DISK): 0 Zone Units
zone of inhibition ([7]; 100 μg/DISK): 0 Zone Units
zone of inhibition ([8]; 10 μg/DISK): 0 Zone Units
zone of inhibition ([8]; 100 μg/DISK): 0 Zone Units
IC50 [9]: 98.4 µM
IC50 [10]: 70.5 µM
IC50 [11]: 47.3 µM

IC50 [9]: 1.27 µM
IC50 [10]: 1.37 µM
IC50 [11]: 0.301 µM
Compound: COC(=O)[C@@H]1CC2=C(C(=O)c3c(cc4ccccc4c3O)C2=O)[C@@H](O[C@H]2C[C@H](NC(=O)C(F)(F)F)[C@H](O)[C@H](C)O2)O1 [BCH-691, (1'S,1R,3S)-Methyl-{11-hydroxy-1-(2',3',6'-trideoxy-3'-trifluoroacetamido-4'-hydroxy-L-lyxoheoxpyranose)-5,12-dioxo-3,4,5,12-tetrahydroanthraceno[2,3-c]pyran-3-yl}formate]
zone of inhibition ([1]; 10 μg/DISK): 148.5 ± 4.9 Zone Units
zone of inhibition ([1]; 100 μg/DISK): 287.0 ± 80.3 Zone Units
zone of inhibition ([2]; 10 μg/DISK): 115.5 ± 9.1 Zone Units
zone of inhibition ([2]; 100 μg/DISK): 213.5 ± 43.1 Zone Units
zone of inhibition ([3]; 10 μg/DISK): 186.5 ± 4.9 Zone Units
zone of inhibition ([3]; 100 μg/DISK): 417.5 ± 99.7 Zone Units
zone of inhibition ([4]; 10 μg/DISK): 114.0 ± 30.2 Zone Units
zone of inhibition ([4]; 100 μg/DISK): 250.0 ± 58.0 Zone Units
zone of inhibition ([5]; 10 μg/DISK): 50.6 ± 25.5 Zone Units
zone of inhibition ([5]; 100 μg/DISK): 180.0 ± 120.0 Zone Units
zone of inhibition ([6]; 10 μg/DISK): 120.0 ± 28.8 Zone Units
zone of inhibition ([6]; 100 μg/DISK): 220.0 ± 50.8 Zone Units
zone of inhibition ([7]; 10 μg/DISK): 50.0 ± 10.0 Zone Units
zone of inhibition ([7]; 100 μg/DISK): 98.0 ± 15.0 Zone Units
zone of inhibition ([8]; 10 μg/DISK): 100.5 ± 50.0 Zone Units
zone of inhibition ([8]; 100 μg/DISK): 200.2 ± 50.0 Zone Units
